Experimental data published in US5028733A, “Prostaglandins” (National Research Development Corporation, priority 1980, dated 1991).

Key:
Type in all cases: cell-based
human platelets = target: T1, human platelets (Homo sapiens, UniProt P21731); assay: Human platelet system, antagonism of aggregation by 11,9-(epoxymethano) PGH2 (affinity constant KB); conditions: for Kb: vs 11,9-(epoxymethano) PGH2, compound added 5 min before, Gaddum-Schild, read-out: Affinity Constants, Human Platelets (KB) (converted)
T1 construct: Platelet-rich plasma is obtained from fresh, citrated human blood; endogenous in cells; host or cells: human platelets in platelet-rich plasma
T1 sequence (P21731 1-343): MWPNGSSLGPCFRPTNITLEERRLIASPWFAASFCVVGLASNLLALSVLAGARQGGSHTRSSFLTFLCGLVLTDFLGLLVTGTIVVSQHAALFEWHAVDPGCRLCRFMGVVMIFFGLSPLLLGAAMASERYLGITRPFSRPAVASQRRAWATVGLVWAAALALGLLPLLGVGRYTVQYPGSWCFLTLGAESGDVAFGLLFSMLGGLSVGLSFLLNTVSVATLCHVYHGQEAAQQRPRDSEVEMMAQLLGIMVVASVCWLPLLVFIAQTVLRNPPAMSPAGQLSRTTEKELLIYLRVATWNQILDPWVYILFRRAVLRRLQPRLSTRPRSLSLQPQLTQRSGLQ
Description: Platelet-rich plasma is obtained from fresh, citrated human blood. Addition of the 11,9-(epoxymethano) PGH2 (1×10^-7 to 5×10^-7 M) causes immediate aggregation recorded as an increase in light transmission (600 nm). In a second experiment the individual compounds are added five minutes previous to the addition of the PGH2 analogue. The dose of the PGH2 analogue added is then increased to a level which gives a similar response to that obtained in the absence of antagonist. The affinity constant, KB, for the compound is calculated according to the Gaddum - Schild Equation (based on Law of Mass Action).
(§1) [B]=molar concentration of compound

rabbit aorta [1] = assay: Rabbit aorta strip, antagonism of contraction by 11,9-(epoxymethano) PGH2 (affinity constant KB); conditions: for Kb: vs 11,9-(epoxymethano) PGH2, 37° C, compound added 30 min before, Gaddum-Schild, read-out: Affinity Constants, Rabbit Aorta (KB) (converted)
Description: Spiral strips of thoracic aorta are suspended in Kreb's-Henseleit solution and aerated with 95% O2 /5% CO2 at 37° C. Tension changes are recorded with a Glass FTO3 force transducer. Initially, cumulative dose response curves to 11,9-(epoxymethano) PGH2 (2×10^-9, 1×10^-8, 5×10^-8 and 2.5×10^-7 M) are obtained. In a second experiment the individual compounds are added 30 minutes previous to the addition of the series of agonist doses. In the case of each compound, the affinity constant, KB, for the compound is calculated according to the Gaddum - Schild Equation (based on Law of Mass Action).
as §1

platelet = assay: Block of the aggregatory action of arachidonic acid on platelets; conditions: in words
rabbit aorta [2] = assay: Block of the contractile action of noradrenaline in the rabbit aorta strip test; conditions: in words

Row | Compound | Kb (human platelets) [nM] | Kb (rabbit aorta [1]) [nM] | other results
1 | O=C(O)CCC/C=C\C[C@H]1[C@H]2CC[C@H](C2)[C@@H]1C=NNC(=O)CN(Cc1ccccc1)Cc1ccccc1 (relative stereo) |  | 833 | 
2 | CC1(C)[C@H]2C[C@H](C=NNC(=S)Nc3ccccc3)[C@@H](C/C=C\CCCC(=O)O)[C@@H]1C2 | 2860 | 1670 | 
3 | COc1cccc(NC(=S)NN=C(C)[C@H]2[C@@H]3CC[C@@H](C3)[C@@H]2C/C=C\CCCC(=O)O)c1 (relative stereo) | 118 | 95.2 | 
4 | O=C(O)CCC/C=C\C[C@H]1[C@H]2CC[C@H](C2)[C@@H]1C=NNC(=S)NCc1ccccc1 (relative stereo) [Example 1, 5-endo-(6'-Carboxyhex-2'Z-enyl)-6-exo-[N-(benzylthiocarbamoyl)-hydrazonomethyl]-bicyclo [2,2,1] heptane] |  |  | aggregatory action of arachidonic acid (platelet): block the aggregatory action of arachidonic acid; antagonist in the platelet test (human platelets; in words): antagonists in the platelet test; contractile action of noradrenaline (α-adrenoceptors) (rabbit aorta [2]): do not block the contractile action of noradrenaline; antagonist in the rabbit aorta strip test (rabbit aorta [1]; in words): pure antagonists in the rabbit aorta strip test
5 | CC(=NNC(=S)Nc1cccnc1)[C@H]1C2CCC(CC2)[C@@H]1C/C=C\CCCC(=O)O (relative stereo) | 667 | 256 | 
6 | Cn1c(=NN=C[C@H]2[C@@H]3CC[C@@H](C3)[C@@H]2C/C=C\CCCC(=O)O)sc2ccccc21 (relative stereo) | 3450 | 1520 | 
7 | CC(=NNC(=S)Nc1ccccc1)[C@H]1C2CCC(CC2)[C@@H]1C/C=C\CCCC(=O)O (relative stereo) | 47.6 | 83.3 | 
8 | O=C(O)CCC/C=C\C[C@H]1C2CCC(CC2)[C@@H]1C=NNC(=O)Nc1ccccc1 (relative stereo) |  | 833 | 
9 | CCC(=NNC(=S)Nc1ccccc1)[C@H]1[C@@H]2CC[C@@H](C2)[C@@H]1C/C=C\CCCC(=O)O (relative stereo) [Example 3, 5-endo-(6'-Carboxyhex-2'Z-enyl)-6-exo-{1'-[N-(phenylthiocarbamoyl)-hydrazono]-propyl}-bicyclo [2,2,1] heptane] | 256 |  | 
10 | COc1ccc(NC(=S)NN=C(C)[C@H]2[C@@H]3CC[C@@H](C3)[C@@H]2C/C=C\CCCC(=O)O)cc1 (relative stereo) | 102 | 213 | 
11 | CC(=NNC(=S)Nc1cccc(C(F)(F)F)c1)[C@H]1[C@@H]2CC[C@@H](C2)[C@@H]1C/C=C\CCCC(=O)O (relative stereo) | 189 | 118 | 
12 | COc1ccc(NC(=O)NN=C(C)[C@H]2C3CCC(CC3)[C@@H]2C/C=C\CCCC(=O)O)cc1 (relative stereo) | 55.6 | 55.6 | 
13 | CC(=NNC(=O)Nc1ccccc1)[C@H]1C[C@H]2C[C@@H]([C@@H]1C/C=C\CCCC(=O)O)C2(C)C | 909 | 357 | 
14 | O=C(O)CCC/C=C\C[C@H]1[C@H]2CC[C@H](C2)[C@@H]1C=NN=C(c1ccccc1)c1ccccc1 (relative stereo) |  | 667 | 
15 | CC(=NNC(=S)Nc1cccc(F)c1)[C@H]1[C@@H]2CC[C@@H](C2)[C@@H]1C/C=C\CCCC(=O)O (relative stereo) | 45.5 | 70.4 | 
16 | CC(=NNC(=S)Nc1ccccc1)[C@H]1[C@@H]2CC[C@@H](C2)[C@@H]1C/C=C\CCCC(=O)O (relative stereo) [drawing 42] | 50 | 90.9 | 
17 | CC1(C)[C@H]2C[C@H](C/C=C\CCCC(=O)O)C(C=NNC(=O)Nc3ccccc3)[C@@H]1C2 (single isomer, unassigned) | 2000 | 333 | 
18 | O=C(O)CCCC=CCC1C(O)CCC1C=NOCc1ccc(F)cc1 (centres unmarked) |  | 2500 | 

Second part, led by results:

Row | Kb (human platelets) [nM] | Compound | Kb (rabbit aorta [1]) [nM] | other results
19 | 5560 | O=C(O)CCC/C=C\C[C@H]1[C@H]2CC[C@H](C2)[C@@H]1C=NNc1nc2ccccc2o1 (relative stereo) | 500 | 
20 | 667 | Cc1ccc(S(=O)(=O)NN=C[C@H]2[C@@H]3CC[C@@H](C3)[C@@H]2C/C=C\CCCC(=O)O)cc1 (relative stereo) | 345 | 
21 | 263 | O=C(O)CCC/C=C\C[C@H]1[C@H]2CC[C@H](C2)[C@@H]1C=NNC(=S)Nc1ccccc1 (relative stereo) | 526 | 
22 | 1280 | O=C(O)CCC/C=C\C[C@H]1[C@H]2CC[C@H](C2)[C@@H]1C=NNC(=S)NCc1ccccc1 (relative stereo) [drawing 41] | 526 | 
23 | 500 | O=C(O)CCC/C=C\C[C@@H]1CC=CC[C@H]1C=NNC(=S)Nc1ccccc1 (relative stereo) | 1100 | 
24 | 4350 | O=C(O)CCC/C=C\C[C@H]1[C@H]2CC[C@H](C2)[C@@H]1C=NOCCOC(c1ccccc1)c1ccccc1 (relative stereo) | 10000 | 
25 | 8330 | O=C(O)CCC/C=C\C[C@@H]1CC=CC[C@H]1C=NOCc1ccc(F)cc1 (relative stereo) | 385 | 
